In patent US20230210834A1, “RNA METHYLTRANSFERASE INHIBITOR, SCREENING METHOD THEREFOR, ANTI-CANCER AGENT EFFICACY ASSESSMENT MARKER, AND KIT FOR EFFECTIVELY PREDICTING FTSJ1 INHIBITOR” (National University Corporation Okayama University, priority 2019, published 2023):

How the values were obtained:
[1] = tested on: polyglutamine luciferase reporter; test: Screening: polyglutamine luciferase reporter assay in NUGC3 cells (luminescence % of DMSO); format: cell-based, human; settings: NUGC3 cells, luminescence relative to DMSO
[2] = Body weight in the anti-tumor effect evaluation test; format: in vivo, immunodeficient mice (BALB/c-nu/nu); settings: 20 mg/kg intraperitoneally every other day
Experimental: A cell suspension (1×10^6 cells/100 μL), in which triple-negative breast cancer cell line MDA-MB-231 was suspended in phosphate buffer (PBS, produced by FUJIFILM Wako Pure Chemical Corporation), was inoculated subcutaneously in the dorsal lumbar region of immunodeficient mice (BALB/c-nu/nu, female, 6 weeks old, purchased from Shimizu Laboratory Supplies Co., Ltd.) using a syringe with a 23 G injection needle (Terumo Corporation). After confirming that the cancer cells engrafted under the skin of the mice to form tumor tissues, and that the tumor volume reached 100 mm^3, the obtained tumor model mice were used for the following evaluation test. First, each compound for evaluation was dissolved in corn oil (produced by Sigma-Aldrich Co., LLC) and administered intraperitoneally. PVZF0024 was administered at 100 mg/kg and PVZF2001 was administered at 20 mg/kg to the tumor model mice every other day. At each administration, the tumor diameter was measured with a caliper. The tumor volume was calculated according to the following formula: V=(3.14×D×d^2)/6 (wherein V is the tumor volume, D is the tumor major axis, and d is the tumor minor axis) (Wu. et al., Clin. Cancer Res., 2013 Oct. 15; 19(20): 5699-5710).
FIGS. 1 and 2 show the antitumor effects of PVZF0024 and PVZF2001.

MGG4 = test: Sphere-forming ability (anchorage-independent cell proliferation), MGG4; format: cell-based, human; settings: MGG4 (high FTSJ1 expression), 1 week, 0-5000 nM; FIG. 4B
Experimental: (§1) To verify whether the expression analysis of these gene clusters contributes to predicting the anti-cancer effect by the FTSJ1 inhibitors, the FTSJ1 gene was actually used as an example to analyze the anti-cancer effect of the FTSJ1 inhibitor PVZF2001 on human malignant brain tumor cell lines. Human malignant brain tumor cell lines MGG4, MGG8, MGG18, MGG23 were treated with stem cell medium (Neurobasal, B-27, N-2, 20 ng/mL EGF, 20 ng/mL bFGF) containing different concentrations (0 nm, 200 nM, 500 nM, 1000 NM, 2000 NM, 5000 nM) of PVZF2001 for 1 week, and anchorage-independent cell proliferation was evaluated based on sphere-forming ability.

MGG18 = test: Sphere-forming ability (anchorage-independent cell proliferation), MGG18; format: cell-based, human; settings: MGG18 (high FTSJ1 expression), 1 week, 0-5000 nM; FIG. 4B
Experimental: as §1

## CC(C)c1cc(C(C)C)c(S(=O)(=O)CC2CC(C)(C)CC(C)(C)C2)c(C(C)C)c1 [PVZF2001]
[1]; 5 μM
  Polyglutamine: 41.05%
[1]; 10 μM
  Polyglutamine: 19.01%
[2]
  weight loss due to administration: no weight loss due to administration was observed
MGG4
  anchorage-independent cell proliferation (sphere-forming ability): showed proliferation inhibition at low concentrations
MGG18
  anchorage-independent cell proliferation (sphere-forming ability): showed proliferation inhibition at low concentrations
